Where two headings read alike, the source gives them in different places.
Tests used:
[1] = tested on: H110D aminopeptidase M-like activity; type: biochemical, Haemonchus contortus
Source text: (§1) α-amino acylpeptide hydrolase (microsomal) aminopeptidase activities in H110D preparations were characterised by assays, in solution, using L-leucine, methionine, phenylalanine, α-glutamic acid and lysine p-nitroanilides (pNA). All the amino acid p-nitroanilide substrates (except α-glutamic acid) were obtained from Sigma, Poole, Dorset UK, α-glutamic acid was from Fluka, Dorset, UK. Single hydrophobic (leucine- or phenylalanine-) and charged (α-glutamic acid-) amino acid pNA known to be substrates for mammalian aminopeptidase-M (ApM) and -A (ApA) respectively, were chosen to measure the effect of enzyme inhibitors and serum inhibition on H110D aminopeptidase activities.
(§2) Micro-ELISA plate (Dynatech Immulon 1, Virginia, USA) wells were each filled with 250 μl of either 50 mM HEPES or MOPS pH 7 plus 1-10 μl of the fraction to be assayed. The plates were then pre-incubated at 37° C. for 10 minutes prior to the addition of 10 μl of 25 mM amino acid p-nitroanilide substrate per well. The time zero optical density (OD) at 405 nm was then measured using an ELISA plate reader and the plates were then incubated at 37° C. for 15-30 minutes. The final OD reading was then taken as before and the OD change per minute per milligram of protein calculated.
(§3) The method used for the enzyme assay was as described in (a) above except that the inhibitors were added to the 250 μl of buffer plus 10 μl of 1 mg/ml ConA H110D and pre-incubated for 10 minutes at 37° C. prior to addition of the substrates (leucine-pNA or α-glutamic acid-pNA). The percentage inhibition was calculated as follows [formula]
(§4) Where x=the ΔOD/min of the enzyme with no inhibitor added and y=ΔOD/min of the enzyme plus inhibitor. Nine compounds with differing enzyme class inhibition were tested individually: Amastatin, Bestatin (metalloprotease, aminopeptidase), 1,10 phenanthroline, EDTA (metalloprotease), phosphoramidon (metalloprotease, thermolysin, collagenase), Aproptinin (serine protease), Pepstatin (aspartic protease), PMSF (serine and cysteine protease) and E64 (cysteine protease). Amastatin, bestatin, 1,10 phenanthroline, PMSF and pepstatin were obtained from Sigma, Dorset, UK. All the other inhibitors were obtained from Boehringer-Mannheim.

[2] = tested on: H110D aminopeptidase A-like activity; assay: Inhibitor sensitivity of ConA H110D, α-glutamic acid-pNA substrate; type: biochemical, Haemonchus contortus
Source text: as §1, §2, §3
as §4, with “Boehringer-Mannheim. Each inhibitor was used at two concentrations equal to or greater than the maximum concentrations recommended by Boehringer-Mannheim.” for “Boehringer-Mannheim.”

SMILES | Ranking of inhibitors of H110D aminopeptidase activities ([1]; 5 mM) | PERCENTAGE INHIBITION Leucine-p-nitroanilide substrate ([1]; inhibitor 1 mM, ConA H110D) | PERCENTAGE INHIBITION Leucine-p-nitroanilide substrate ([1]; inhibitor 10 mM, ConA H110D) | PERCENTAGE INHIBITION α-glutamic acid-p-nitroanilide substrate ([2]; inhibitor 1 mM) | PERCENTAGE INHIBITION α-glutamic acid-p-nitroanilide substrate ([2]; inhibitor 10 mM) | PERCENTAGE INHIBITION Leucine-p-nitroanilide substrate ([1]; inhibitor 10 μM, ConA H110D) | PERCENTAGE INHIBITION Leucine-p-nitroanilide substrate ([1]; inhibitor 50 μM, ConA H110D) | PERCENTAGE INHIBITION α-glutamic acid-p-nitroanilide substrate ([2]; inhibitor 10 μM) | PERCENTAGE INHIBITION α-glutamic acid-p-nitroanilide substrate ([2]; inhibitor 50 μM) | Reduction of activity against leucine-p-nitroanilide ([1]; ConA H110D, concentration recommended by the supplier) | PERCENTAGE INHIBITION Leucine-p-nitroanilide substrate ([1]; inhibitor 100 μM, ConA H110D) | PERCENTAGE INHIBITION α-glutamic acid-p-nitroanilide substrate ([2]; inhibitor 100 μM)
c1cnc2c(c1)ccc1cccnc12 [1, 10 phenanthroline, 1,10 phenanthroline] | most effective inhibitor | 78% | 87% | 78% | 85% | – | – | – | – | – | – | –
CC(C)C[C@@H](N)[C@H](O)C(=O)N[C@H](C(=O)N[C@H](C(=O)N[C@@H](CC(=O)O)C(=O)O)C(C)C)C(C)C [Amastatin] | – | – | – | – | – | 61% | 66% | 0% | 0% | – | – | –
CC(C)C[C@H](NC(=O)[C@@H](O)[C@H](N)Cc1ccccc1)C(=O)O [Bestatin] | – | – | – | – | – | – | 63% | – | 23% | approximately 70% | 68% | 35%
O=C(O)CN(CCN(CC(=O)O)CC(=O)O)CC(=O)O [EDTA, ethylenediaminetetraacetic acid] | – | 8% | 16% | 17% | 21% | – | – | – | – | – | – | –
CC(C)C[C@H](NP(=O)(O)O[C@@H]1O[C@@H](C)[C@H](O)[C@@H](O)[C@H]1O)C(=O)N[C@@H](Cc1c[nH]c2ccccc12)C(=O)O [Phosphoramidon, phosphoramidon] | – | – | – | – | – | 0.8% | 7% | 1% | 1% | – | – | –

From patent publication US6534638B1, “Recombinant DNA molecules encoding aminopeptidase enzymes and their use in the preparation of vaccines against helminth infections” (priority 1992, dated 2003)
